# Laboratory results: US20250195444A1, “POLYMER-COATED NANOPARTICLES AND PREPARATION METHOD THEREFOR” (SCINDY PHARMACEUTICAL (SUZHOU) CO., LTD, priority 2022, published 2025)
# Tests used:
# [1] = test system: Carbapenem-susceptible Acinetobacter baumannii (10); assay: In vitro antimicrobial susceptibility testing, broth microdilution MIC; assay type: cell-based; settings: 10 strains
# Text: (§1) A total of 44 strains of clinically isolated Gram-negative bacteria were collected for antimicrobial susceptibility testing, including 12 strains of Escherichia coli (carbapenem-susceptible), 12 strains of Klebsiella pneumoniae (carbapenem-susceptible), 10 strains of Acinetobacter baumannii (carbapenem-susceptible), and 10 strains of Pseudomonas aeruginosa (carbapenem-susceptible).
# (§2) According to the recommendations of the 2021 edition of the Clinical and Laboratory Standards Institute (CLSI), a broth microdilution method was used to measure the minimum inhibitory concentration (MIC) of a test substance against clinical isolates. • (1) Preparation of antimicrobial drug: The test drug was dissolved and diluted, and the control drug was dissolved and diluted according to CLSI requirements. The test concentration range of the antibacterial drug solution was 0.015 mg/L to 32 mg/L. • (2) Culture medium: Cation adjusted muellerhinton broth (CAMHB), a product of BD Company, USA, batch number: 9324795. • (3) Inoculation amount: Fresh pure colonies on Columbia blood agar were picked using a direct colony suspension method. The colonies were adjusted to a McFarland turbidity of 0.5 and then appropriately diluted. The final concentration of the test bacteria was 10^5 CFU/mL. • (4) Culture conditions: The colonies were cultured in air at 35° C.±2° C. for 16 to 20 hours. • (5) Reading and judgment of results: For colistin, according to the European EUCAST breakpoint judgment standard, a result of <2 mg/L is susceptible, and a result of >4 mg/L is resistant. The lowest antimicrobial drug concentration that inhibits bacterial growth is read as an MIC value. • (6) Quality control strains: Escherichia coli ATCC 25922 and Pseudomonas aeruginosa ATCC 27853. • (7) Data statistics: WHONET version 5.6 software was used to perform statistical analysis on the results of the antimicrobial susceptibility testing.
# [2] = test system: Carbapenem-susceptible Escherichia coli (12); assay: as above; assay type: cell-based; settings: 12 strains
# Text: as §1, §2
# [3] = test system: Carbapenem-susceptible Gram-negative bacteria (44); assay: as above; assay type: cell-based; settings: 44 strains
# Text: as §1, §2
# [4] = test system: Carbapenem-susceptible Klebsiella pneumoniae (12); assay: as above; assay type: cell-based; settings: 12 strains
# Text: as §1, §2
# [5] = test system: Carbapenem-susceptible Pseudomonas aeruginosa (10); assay: as above; assay type: cell-based; settings: 10 strains
# Text: as §1, §2
# [6] = Safety test, maximum tolerated dose in ICR mice; assay type: in vivo; settings: male ICR mice, intravenous injection, 1.5 mg/ml
# Text: The drug safety of colistin sulfate, the nanoparticles of Examples 1 and 2, and the nanoparticles of Comparative Examples 1 and 2 in mice was compared.
# Test indicators: clinical observation, animal morbidity/death, and weight change. The maximum compound dosage that causes the weight loss of mice to not exceed 20% and no animal death is the maximum tolerated dose.
# HT29 cells = assay: Proliferation of HT29 cells in vitro (CCK8); assay type: cell-based; settings: 72 hours of drug treatment, read-out: HT-29ReIC50
# Protocol: Cell culture: HT29 (Cat. No.: CBP30001L, purchased from Cobioer) was revived and cultured with 1640+10% FBS.
# Plating: Normally growing cells were digested with a trypsin cell digestion solution, then centrifuged, counted, and plated into a 96-well plate at a cell density of 3000 cells/well, 100 μL per well, for a total of 60 wells, and sealed with an appropriate amount of PBS around to prevent water evaporation in the edge wells.
# Administration: The administration was performed on the second day after cell plating, 100 μL of a drug solution was added to each well, and two replicate wells were set up for each concentration point.
# Detection: After 72 hours of drug treatment, all the liquid in the 96-well plate was poured out, and 100 μL of a CCK8 (diluted to 1:9 with culture medium) solution was added to each well. After incubation at 37° C. for a period of time (OD450 of Vehicle group reached above 1.0), the absorption at 450 nm was detected using an ELISA reader.
# Data processing: Inhibition Rate (%)=(1−OD450Sample/OD450Vehicle)×100, where
# OD450Sample is the 450 nm absorption value of the drug-treated group, and OD450Vehicle is the 450 nm absorption value of the DMSO control group. GraphPad Prism 8.0 software was used to draw an S-shaped dose-survival rate curve with a nonlinear regression model, and the IC50 value was calculated.
# [7] = Safety test, maximum tolerated dose in Balb/c nude mice; settings: male Balb/c nude mice, intravenous injection, 1.0 mg/ml
# Protocol: Male Balb/c nude mice (purchased from Shanghai Lingchang Experimental Animal Co., Ltd.), 6 to 7 weeks old and weighing 17 g to 21 g, were given platinum cyclohexanediamine dihydrate or a platinum cyclohexanediamine dihydrate polymer-coated nanoparticle solution by intravenous injection at an administration concentration of 1.0 mg/ml. The dose volume was adjusted according to the weight of the animal. The highest dose that enables all subjects in the test to survive continuously is defined as MTD.
# Animal grouping: Before starting the administration, the animals were weighed and randomly grouped according to the weight.
# Test indicators: After administration, the mice were observed continuously for at least 14 days, and the observation interval and frequency were properly arranged so as to observe the occurrence of toxic reactions, recovery time, animal death time, etc. If the toxic reactions of the mice occur slowly or the mice recover slowly, the observation time should be appropriately extended.
substance,measurement,setting,value
colistin sulfate,MIC50,[1],0.5 µg/mL
same,MIC90,[1],0.5 µg/mL
same,Mode (MIC),[1],0.5 µg/mL
same,Resistance rate (%),[1]; EUCAST breakpoint,0%
same,Susceptibility rate (%),[1]; EUCAST breakpoint,100%
same,MIC50,[2],0.125 µg/mL
same,MIC90,[2],0.25 µg/mL
same,Mode (MIC),[2],0.125 µg/mL
same,Resistance rate (%),[2]; EUCAST breakpoint,0%
same,Susceptibility rate (%),[2]; EUCAST breakpoint,100%
same,MIC50,[3],0.5 µg/mL
same,MIC90,[3],2 µg/mL
same,Mode (MIC),[3],0.5 µg/mL
same,Resistance rate (%),[3]; EUCAST breakpoint,0%
same,Susceptibility rate (%),[3]; EUCAST breakpoint,100%
same,MIC50,[4],0.5 µg/mL
same,MIC90,[4],0.5 µg/mL
same,Mode (MIC),[4],0.5 µg/mL
same,Resistance rate (%),[4]; EUCAST breakpoint,0%
same,Susceptibility rate (%),[4]; EUCAST breakpoint,100%
same,MIC50,[5],1 µg/mL
same,MIC90,[5],2 µg/mL
same,Mode (MIC),[5],2 µg/mL
same,Resistance rate (%),[5]; EUCAST breakpoint,0%
same,Susceptibility rate (%),[5]; EUCAST breakpoint,100%
same,MTD,[6],8 mg/kg
platinum cyclohexanediamine dihydrate [Cyclohexanediamine platinum dihydrate],IC50,HT29 cells,1610 ± 230 nM
same,MTD,[7],<4 mpk
